Consider 21 compounds from patent publication US11566007B2, “Ras inhibitors” (Revolution Medicines, Inc., priority 2019, dated 2023).

Molecules are shown by their SMILES. A value given as a limit tells only on which side of the number the result lay.

Sequence of NRAS Q61R (P01111 whole entry Q61R): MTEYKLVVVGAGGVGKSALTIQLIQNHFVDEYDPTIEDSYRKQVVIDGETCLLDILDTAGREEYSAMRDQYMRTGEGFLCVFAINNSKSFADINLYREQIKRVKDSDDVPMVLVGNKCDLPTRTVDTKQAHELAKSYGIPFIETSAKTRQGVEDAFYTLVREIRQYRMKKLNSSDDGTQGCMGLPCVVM
Sequence of NRAS Q61R (P62937 whole entry): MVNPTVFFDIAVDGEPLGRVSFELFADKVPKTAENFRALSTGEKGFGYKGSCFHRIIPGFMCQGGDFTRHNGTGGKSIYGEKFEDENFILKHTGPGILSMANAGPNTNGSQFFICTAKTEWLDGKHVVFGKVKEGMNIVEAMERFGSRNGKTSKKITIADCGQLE

One test addresses NRAS Q61R (Homo sapiens (Human), UniProt P01111+P62937, Q61R). The test can be described thus: Ras-Raf (BRAF RBD) disruption / FRET / MOA assay, NRAS Q61R. It is filed as biochemical.
Conditions: not given
The method in brief: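 Compounds were tested as a 10-point 3-fold dilution series from 30 μM final for their ability to drive ternary complex formation between nucleotide-loaded Ras and cyclophilin A, displacing the BRAF RBD. After 3 h at 25° C., anti-His Eu-W1024 (10 nM) and anti-GST allophycocyanin (50 nM) were added for 1.5 h. A TR-FRET ratio decrease versus DMSO gave IC50.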
The compound `CCn1c(-c2cccnc2[C@H](C)OC)c2c3cc(ccc31)-c1cccc(c1)C[C@H](NC(=O)[C@H](C(C)C)N1CC[C@@]3(CCN(C(=O)C#C[C@@H]4COCCN4C)C3)C1=O)C(=O)N1CCC[C@H](N1)C(=O)OCC(C)(C)C2` (atropisomer, axis not shown) [Example A549] came in with a half-maximal inhibitory concentration (IC50) of 1 to 10 µM.

Staying with this test, now noted: NRAS Q61R; Ras-Raf disruption/FRET/MOA assay; read-out: IC50* NRAS Q61R FRET data.
Turning to `C=CC(=O)N1CC[C@H](C(=O)N(C)[C@H](C(=O)N[C@H]2CC3=NC=C(O3)c3ccc4c(c3)c(c(-c3cccnc3[C@H](C)OC)n4CC)CC(C)(C)COC(=O)[C@@H]3CCCN(N3)C2=O)C(C)C)C1` (atropisomer, axis not shown) [Example A278], the IC50 is over 10 µM.

Turning to `CCn1c(-c2cccnc2[C@H](C)OC)c2c3cc(ccc31)-c1cccc(c1)C[C@H](NC(=O)[C@H](C(C)C)N(C)C(=O)[C@H]1CCN(C(=O)C#CC(C)(C)N(C)C)C1)C(=O)N1CCC[C@H](N1)C(=O)OCC(C)(C)C2` (atropisomer, axis not shown) [Example A290], the IC50 fell in the range of 1 to 10 µM. On to `C=CS(=O)(=O)N1CCC2(CCN([C@H](C(=O)N[C@H]3Cc4cc(O)cc(c4)-c4ccc5c(c4)c(c(-c4cccnc4[C@H](C)OC)n5CC)CC(C)(C)COC(=O)[C@@H]4CCCN(N4)C3=O)C(C)C)C2=O)CC1` (atropisomer, axis not shown) [Example A299], for which the IC50 was in the range of 0.1 to 1 µM. On the same count and under the same terms, the figure for `CO[C@@H](C)c1ncccc1-c1c2c3cc(ccc3n1CC(F)(F)F)-c1csc(n1)C[C@H](NC(=O)[C@@H](COC1CN(C(=O)C#CC(C)(C)N(C)C)C1)C(C)C)C(=O)N1CCC[C@H](N1)C(=O)OCC(C)(C)C2` (atropisomer, axis not shown) [Example A343] is 1 to 10 µM; for `C=CC(=O)N1CC[C@H](C(=O)N(C)[C@H](C(=O)N[C@H]2Cc3cc(cc(C(F)F)c3)-c3ccc4c(c3)c(c(-c3cc(N5CCN(C)CC5)cnc3[C@H](C)OC)n4CC(F)(F)F)CC(C)(C)COC(=O)[C@@H]3CCCN(N3)C2=O)C(C)C)C1` (atropisomer, axis not shown) [Example A357] it is 0.1 to 1 µM; for `CO[C@@H](C)c1ncccc1-c1c2c3cc(ccc3n1CC(F)(F)F)-c1cccc(c1)C[C@H](NC(=O)[C@@H](COC1CN(C(=O)C#CC(C)(C)N(C)C)C1)C(C)C)C(=O)N1CCC[C@H](N1)C(=O)OCC(C)(C)C2` (atropisomer, axis not shown) [Example A376] it is over 10 µM.

Regarding `C=CC(=O)N1C[C@H](C)N(C(=O)N(C)[C@H](C(=O)N[C@H]2Cc3nc(cs3)-c3ccc4c(c3)c(c(-c3cccnc3[C@H](C)OC)n4CC)CC(C)(C)COC(=O)[C@@H]3CCCN(N3)C2=O)C(C)C)C[C@@H]1C` (atropisomer, axis not shown) [Example A385], the 50% inhibitory concentration (IC50) lay in the range of 0.01 to 0.1 µM. Still for that read-out and setting: the same measure for `C=CC(=O)N1CCC12CN(C(=O)N(C)[C@H](C(=O)N[C@H]1Cc3nc(cs3)-c3ccc4c(c3)c(c(-c3cccnc3[C@H](C)OC)n4CC)CC(C)(C)COC(=O)[C@@H]3CCCN(N3)C1=O)C(C)C)C2` (atropisomer, axis not shown) [Example A393]: 0.1 to 1 µM. For the compound `CCn1c(-c2cccnc2[C@H](C)OC)c2c3cc(ccc31)-c1cc(F)cc(c1)C[C@H](NC(=O)[C@@H](COC1CN(C(=O)C#CC(C)(C)N(C)C)C1)C(C)C)C(=O)N1CCC[C@H](N1)C(=O)OCC(C)(C)C2` (atropisomer, axis not shown) [Example A403], the IC50 was over 10 µM.

Take `C=CC(=O)N1CC2(CCN2C(=O)N(C)[C@H](C(=O)N[C@H]2Cc3nc(cs3)-c3ccc4c(c3)c(c(-c3cccnc3[C@H](C)OC)n4CC)CC(C)(C)COC(=O)[C@@H]3CCCN(N3)C2=O)C(C)C)C1` (atropisomer, axis not shown) [Example A407]: the IC50 was in the range of 0.01 to 0.1 µM. Same read-out and setting: the figure for `C=CC(=O)N1CC[C@H](C(=O)N(C)[C@H](C(=O)N[C@H]2CC3=NN=C(O3)c3ccc4c(c3)c(c(-c3cccnc3[C@H](C)OC)n4CC)CC(C)(C)COC(=O)[C@@H]3CCCN(N3)C2=O)C(C)C)C1` (atropisomer, axis not shown) [Example A447] is over 10 µM; for `C=CC(=O)Nc1ncc(C(=O)N(C)[C@H](C(=O)N[C@H]2Cc3cccc(c3)-c3ccc4c(c3)c(c(-c3cccnc3[C@H](C)OC)n4CC)CC(C)(C)COC(=O)[C@@H]3CCCN(N3)C2=O)C(C)C)n1C` (atropisomer, axis not shown) [Example A474] it is 1 to 10 µM; for `C=CC(=O)N1CC[C@H](C(=O)N2CC[C@H](C)[C@H]2C(=O)N[C@H]2Cc3cccc(c3)-c3ccc4c(c3)c(c(-c3cccnc3[C@H](C)OC)n4CC)CC(C)(C)COC(=O)[C@@H]3CCCN(N3)C2=O)C1` (atropisomer, axis not shown) [Example A494] it is 1 to 10 µM. The same measure, in the same setting: the figure for `C=CC(=O)N1CC[C@H](C(=O)N2CCCCC[C@H]2C(=O)N[C@H]2Cc3cccc(c3)-c3ccc4c(c3)c(c(-c3cccnc3[C@H](C)OC)n4CC)CC(C)(C)COC(=O)[C@@H]3CCCN(N3)C2=O)C1` (atropisomer, axis not shown) [Example A496] is 1 to 10 µM; for `CCn1c(-c2cccnc2[C@H](C)OC)c2c3cc(ccc31)-c1cccc(c1)C[C@H](NC(=O)[C@H](C(C)C)N1CC[C@]3(CCN(C(=O)C#CC(C)(C)N(C)C)C3)C1=O)C(=O)N1CCC[C@H](N1)C(=O)OCC(C)(C)C2` (atropisomer, axis not shown) [Example A534, (2S)-2-((S)-7-(4-(dimethylamino)-4-methylpent-2-ynoyl)-1-oxo-2,7-diazaspiro[4.4]nonan-2-yl)-N-((6^3S,4S)-1^1-ethyl-1^2-(2-((S)-1-methoxyethyl)pyridin-3-yl)-10,10-dimethyl-5,7-dioxo-6^1,6^2,6^3,6^4,6^5,6^6-hexahydro-1^1H-8-oxa-1(5,3)-indola-6(1,3)-pyridazina-2(1,3)-benzenacycloundecaphane-4-yl)-3-methylbutanamide] it is 1 to 10 µM; for `C=CC(=O)N1CC[C@H]2[C@@H]1CN2C(=O)N(C)[C@H](C(=O)N[C@H]1Cc2nc(cs2)-c2ccc3c(c2)c(c(-c2cccnc2[C@H](C)OC)n3CC)CC(C)(C)COC(=O)[C@@H]2CCCN(N2)C1=O)C(C)C` (atropisomer, axis not shown) [Example A547] it is 1 to 10 µM. Still for that read-out and setting: the same measure for `CCn1c(-c2cccnc2[C@H](C)OC)c2c3cc(ccc31)-c1cccc(c1)C[C@H](NC(=O)[C@H](C(C)C)N1CC[C@]3(CCN(C(=O)C#C[C@@]4(N(C)C)CCOC4)C3)C1=O)C(=O)N1CCC[C@H](N1)C(=O)OCC(C)(C)C2` (atropisomer, axis not shown) [Example A560]: 1 to 10 µM. As for `C=CC(=O)N1C[C@@H]2CN(C(=O)N(C)[C@H](C(=O)N[C@H]3Cc4nc(cs4)-c4ccc5c(c4)c(c(-c4cccnc4[C@H](C)OC)n5CC)CC(C)(C)COC(=O)[C@@H]4CCCN(N4)C3=O)C(C)C)[C@@H]2C1` (atropisomer, axis not shown) [Example A561], the IC50 lay in the range of 1 to 10 µM.

With `C=CC(=O)N1CCO[C@H]2CN(C(=O)N(C)[C@H](C(=O)N[C@H]3CC4=NN=C(O4)c4ccc5c(c4)c(c(-c4cccnc4[C@H](C)OC)n5CC(F)(F)F)CC(C)(C)COC(=O)[C@@H]4CCCN(N4)C3=O)C(C)C)C[C@H]21` (atropisomer, axis not shown) [Example A576], the IC50 was over 10 µM.

For the compound `CO[C@@H](C)c1ncccc1-c1c2c3cc(ccc3n1CC(F)(F)F)-c1nc(co1)C[C@H](NC(=O)[C@H](C(C)C)N(C)C(=O)C1(F)CCN(C(=O)C#CC(C)(C)N(C)C)CC1)C(=O)N1CCC[C@H](N1)C(=O)OCC(C)(C)C2` (atropisomer, axis not shown) [Example A578], the IC50 lay within 0.1 to 1 µM.

What is called IC50 is the concentration needed to halve the response being measured.
